Source: the supplement of paper PMC13380429

Experiments:
Settings in all cases: 72 h
Vero E6 [1] = test: cell viability relative to DMSO; higher = less toxic
U2OS [2] = test: as above
HepG2 [3] = test: as above
Caco-2 [4] = test: as above
Calu-3 [5] = test: as above
Vero E6 [6] = test: relative viability EC50 (midpoint between 100% and the lowest measured viability); higher = less toxic
U2OS [7] = test: as above
HepG2 [8] = test: as above
Caco-2 [9] = test: as above
Calu-3 [10] = test: as above
Vero E6 [11] = test: drug sensitivity score (DSS) for viability; higher = more toxic; extreme values may be limits of the assay
U2OS [12] = test: as above
HepG2 [13] = test: as above
Caco-2 [14] = test: as above
Calu-3 [15] = test: as above

SMILES	cell viability (Vero E6 [1]; 1 nM) [%]	cell viability (Vero E6 [1]; 10 nM) [%]	cell viability (Vero E6 [1]; 100 nM) [%]	cell viability (Vero E6 [1]; 1000 nM) [%]	cell viability (Vero E6 [1]; 10000 nM) [%]	cell viability (U2OS [2]; 1 nM) [%]	cell viability (U2OS [2]; 10 nM) [%]	cell viability (U2OS [2]; 100 nM) [%]	cell viability (U2OS [2]; 1000 nM) [%]	cell viability (U2OS [2]; 10000 nM) [%]	cell viability (HepG2 [3]; 1 nM) [%]	cell viability (HepG2 [3]; 10 nM) [%]	cell viability (HepG2 [3]; 100 nM) [%]	cell viability (HepG2 [3]; 1000 nM) [%]	cell viability (HepG2 [3]; 10000 nM) [%]	cell viability (Caco-2 [4]; 1 nM) [%]	cell viability (Caco-2 [4]; 10 nM) [%]	cell viability (Caco-2 [4]; 100 nM) [%]	cell viability (Caco-2 [4]; 1000 nM) [%]	cell viability (Caco-2 [4]; 10000 nM) [%]	cell viability (Calu-3 [5]; 1 nM) [%]	cell viability (Calu-3 [5]; 10 nM) [%]	cell viability (Calu-3 [5]; 100 nM) [%]	cell viability (Calu-3 [5]; 1000 nM) [%]	cell viability (Calu-3 [5]; 10000 nM) [%]	relative viability EC50 (Vero E6 [6]) [µM]	relative viability EC50 (U2OS [7]) [µM]	relative viability EC50 (HepG2 [8]) [µM]	relative viability EC50 (Caco-2 [9]) [µM]	relative viability EC50 (Calu-3 [10]) [µM]	drug sensitivity score (Vero E6 [11])	drug sensitivity score (U2OS [12])	drug sensitivity score (HepG2 [13])	drug sensitivity score (Caco-2 [14])	drug sensitivity score (Calu-3 [15])
Oc1ccc(C2(c3ccccc3F)CCC(F)(F)CC2)cc1 [AC-186]	97.4	96.5	94.2	92.2	109	95.1	96.3	95.5	99.3	99	95.8	94.7	100	96.3	104	104	95	98.2	96.2	102	91	98.4	89.3	105	104	> 10	> 10	> 10	> 10	> 10	0	0	0	0	0
COc1cc(OC)nc(O[C@H](C(=O)O)C(OC)(c2ccccc2)c2ccccc2)n1 [darusentan]	96.5	98.8	97.2	92.3	98.6	97.1	102	91	96.9	94.6	98.2	98.8	93.6	95.5	91.3	102	96.9	97.3	95.1	102	111	93.3	99.1	101	101	> 10	> 10	> 10	> 10	> 10	0	0	0	0	0
O=C(O)CCNc1cc(N2CCc3ccccc3CC2)nc(-c2ccccn2)n1 [GSK-J1]	102	94.8	96.2	95.2	102	90.4	100	91.9	98.6	102	109	89.9	113	101	91.3	91.6	92.4	100	99.7	104	97.5	93.3	97.9	104	111	> 10	> 10	> 10	> 10	> 10	0	0	0	0	0
O=C(NCCNCC(O)COc1ccc(O)cc1)N1CCOCC1 (stereo not given) [xamoterol]	93.8	98.5	98	98.5	95.7	99.7	91.3	96.5	99.1	101	99.1	99.4	96.2	102	102	95.8	96.7	99.9	90.3	99.5	106	104	110	100	93.6	> 10	> 10	> 10	> 10	> 10	0	0	0	0	0
CC(=O)N1N=C(c2ccc(N)cc2)c2cc3c(cc2C[C@H]1C)OCO3 [talampanel]	94	95.3	95.9	95.5	97.4	99	101	96.7	95.5	97.7	101	93.9	100	107	99.7	94.7	104	94.7	96.9	98.6	98	99.6	98.2	95.6	97.3	> 10	> 10	> 10	> 10	> 10	0	0	0	0	0
O=C1C[C@@H](c2ccc(O)cc2)Oc2cc(O)cc(O)c21 [naringenin]	101	99.7	101	94	93.3	98.9	104	95.6	102	103	104	107	99.3	95.1	99.9	114	103	90.3	97.2	88.5	93.2	97.9	89.9	99.7	93.7	> 10	> 10	> 10	> 10	> 10	0	0	0	0	0
CCCCN1CCCCC1C(=O)Nc1c(C)cccc1C (stereo not given) [bupivacaine]	103	103	104	98.7	99.6	95.7	96.7	94.6	103	95.7	100	106	92.7	97.2	103	85.3	88.2	71.6	96.7	82.9	95.9	101	80.2	99.1	88.4	> 10	> 10	> 10	> 10	> 10	0	0	0	0	0
